Measured values published in patent publication US10105384B2, “Nucleic acids targeting TCTP for use in the treatment of chemo- or hormone-resistant cancers” (INSTITUT NATIONAL DE LA SANTE ET DE LA RECHERCHE MEDICALE …, priority 2010, dated 2018).

Experiments:
PC-3 tumors = test: PC-3 tumor growth in vivo in athymic nude mice; conditions: PC3 xenografted nude mice, 10th week of treatment
Description: Approximately 3.10^6 PC-3 cells and 10.10^6 LNCaP cells were inoculated subcutaneously with 0.1 mL of Dulbecco's Modified Eagle's Medium (Invitrogen) supplemented with 10% FCS for PC-3 or with 0.1 mL of Matrigel (BD Biosciences Discovery Labware) for LNCaP in the flank region of 4-week-old male athymic nude mice (Charles River, L'Arbresle, France) via a 23-gauge needle. When PC-3 tumors reached 50 mm^3, usually 3 to 4 weeks after injection, mice were randomly selected for treatment with TCTP ASO alone, scrambled ASO alone, TCTP ASO plus docetaxel or scrambled ASO plus docetaxel. Mice bearing LNCaP tumors between 200 and 300 mm^3 in volume were castrated via scrotal approach and randomly assigned to a treatment arm. Mice were treated beginning 1 week after castration with TCTP ASO or control ASO alone and serum PSA measurements were done weekly. For both experiments, each experimental group consisted in 10 mice and the tumor volume measurements were performed once weekly and calculated by the formula length×width×depth×0.5236 (Gleave et al., 1999, Clin Cancer Res 5:2891-8). After randomization, 10 mg/kg TCTP or scrambled ASO was injected intraperitoneally (i.p) once daily for 60 days for ASO monotherapy groups and 90 days for the ASO plus docetaxel groups. A total of 35 mg/kg docetaxel was administrated i.p. three times per week from days 7 to 14. Tumor volume measurements were performed once weekly and calculated by the formula length×width×depth×0.5236 (20). Data points were expressed as average tumor volume levels +/−standard error (SE). All animal procedures were performed in accordance with protocols approved by French laws and the European directives and with appropriate institutional certification.
We next evaluated the effects of TCTP ASO treatment on the growth of PC-3 tumors in vivo (FIG. 8). Male nude mice bearing PC-3 tumors (50 mm^3) were randomly selected for TCTP ASO versus scrambled ASO and 10 mg/kg ASO were administrated once daily by i.p. injection for […]. From days 7 to 14, 30 mg/kg of docetaxel was administrated i.p. 3 days in the week. Mean tumor volume was similar in all groups before therapy.
TCTP inhibition was evaluated in nude mice xenografted with the PC3 CRPC cell line. The animals were treated in an everyday basis and for a period of two months by peritoneal injection of ASO or control TCTP once their tumor volume was 200-300 mm^3. In order to evaluate the additive anticancer activity of ASO TCTP, mice were treated with docetaxel (33 mg/kg) by peritoneal injection three times per week for one week prior to ASO or control TCTP injections. For all experiments, the average tumor volume was measured once a week.

PC-3 cells = test: Flow cytometry of propidium iodide-stained nuclei (apoptosis, cell cycle), PC-3 cells; assay type: cell-based, human; conditions: PC-3, docetaxel treatment
Description: Flow cytometry of propidium iodide-stained nuclei was performed as described previously (Rocchi et al., 2004, Cancer Res. 64:6595-602). In brief, PC-3 cells were plated at the density of 10^6 cells into 10 cm dishes in DMEM supplemented with 10% FCS. To assess the effect of TCTP inhibition on apoptosis and cell cycle, cells were treated the day after seeding with 5 nM of siRNA TCTP or control and 100 nM of ASO TCTP or scrambled control for 48 h. Cells were then treated with 50 nM of docetaxel. After 24 h, the cells were analyzed for relative DNA content on a dual laser flow cytometer (FACSCalibur, Becton Dickinson Biosciences, Le Pont de Claix, France). Each assay was performed in triplicate.
Flow cytometry was used to quantify the percentage of cells in each cell cycle phase three days after the siRNA treatment. After the treatment of PC-3 cells with 5 nM TCTP siRNA for 1 day, the fraction of cells undergoing apoptosis (sub-G1/G0 fraction) was 25% higher after treatment with 5 nM TCTP siRNA compared with scrambled control siRNA (**, P≤0.01; FIG. 6, upper panel). Using TCTP ASO treatment alone, we found an increase of 75% in sub-G0G1 fraction (***, P≤0.001; FIG. 6, middle and bottom panel), enhanced by the 50 nM docetaxel treatment (90% in sub-G0-G1 fraction, ***, P≤0.001). […] The fraction of PC-3 in S phase was 20 to 40% lower after TCTP siRNA or ASO treatments respectively compared to the scrambled controls (FIG. 6). […] The rate of apoptotic PC-3 cells after TCTP silencing with different ASO concentrations was explored with the Invitrogen countess (FIG. 6 and FIG. 7A). PC-3 cells were treated with 70, 100 or 200 nM of TCTP ASO or control. Cells were harvested 3 days after treatment and […] of trypan blue was added before analysis with Invitrogen Countess. […] Moreover, TCTP has been reported to interact with caspase-3, thereby inhibiting caspase-3 activation (Gnanasekar et al., 2009, Int J Oncol. 34:1241-6). In order to investigate the effect of TCTP silencing on caspase-3 cleavage and activity, PC-3 cells were treated daily with 100 nM TCTP or scrambled ASO for 2 days. Cells were harvested 2 days after and proteins were extracted for western blotting with a caspase-3 antibody that recognizes both full-length and cleaved caspase-3.
PC3 cells were transfected with a TCTP siRNA of SEQ ID NO: 3. Cell proliferation and apoptosis were studied using respectively MTT (3-(4,5-dimethylthiazol-2-yl)-2,5-diphenyl tetrazolium bromure) assay and flow cytometry.
PC3 cells were transfected with a TCTP ASO of SEQ ID NO: 2. Cell proliferation and apoptosis were studied using respectively MTT assay and flow cytometry.

TCTP = test: ASO sequences screening: TCTP expression by western blot and/or qRT-PCR; assay type: cell-based, human; conditions: WB and/or qRT-PCR, PC-3 cells overexpressing TCTP
Description: Western Blot analysis was performed as described previously (Rocchi et al., 2004, Cancer Res. 64:6595-602) with 1:5000 rabbit anti-Hsp27 polyclonal antibody (Assay Designs, Villeurbanne, France), 1:2000 rabbit TCTP polyclonal antibody (Abcam Inc., Cambridge, UK), 1:250 rabbit anti-MSL1v1 polyclonal antibody (Abcam Inc.), 1:500 mouse anti-ubiquitin monoclonal antibody (Santa Cruz Biotechnology Inc., Heidelberg, Germany) or 1:1000 rabbit anti-caspase-3 polyclonal antibody (Cell Signalling Technology Inc., Danvers, USA). Loading levels were normalized using 1:5000 rabbit anti-glyceraldehyde-3-phosphate dehydrogenase polyclonal (Abcam Inc.) or 1:2500 mouse anti-vinculine monoclonal antibodies (Sigma Chemical Co., St Louis, Mo., USA).
The quantitative reverse transcription polymerase chain reaction (qRT-PCR) analysis was done on a LightCycler detection system (Roche Applied Science, Meylan, France). Expression levels of 18S subunit of the ribosome gene were used as an internal control. First strand cDNA was synthesized from 1 μg of total RNA using random hexamers and expanded by reverse transcriptase according to the manufacturer's instructions (ImProm-II Reverse Transcription System, Promega, Charbonniéres-les-Bains, France), subsequently diluted 1:10 with water, and stored at −20° C. until use. TCTP and 18S polymerase chain reaction (PCR) products were detected by quantitative real time PCR (qRT-PCR) using the SYBR Premix Ex Taq (Takara Bio Inc, St Germain en Laye, France) following the manufacturer's instructions. Five microliters of diluted cDNA template were mixed with 10 μl SYBR Premix Ex Taq (including Taq polymerase, reaction buffer, MgCl2, SYBR green I dye, and deoxynucleotide triphosphate mix) and 0.4 μM forward and reverse primers, in a final volume of 20 μl. The following primers were used: TCTP forward 5′-[…]-3′ (SEQ ID NO: 8) and TCTP reverse 5′-[…]-3′; (SEQ ID NO: 9); 18S forward 5′-[…]-3′ (SEQ ID NO: 10) and 18S reverse 5′-[…]-3′ (SEQ ID NO: 11). After an initial Taq activation for 10 seconds at 95° C., Light Cycler PCR was done using 55 cycles with the following cycling conditions: 95° C. for 5 seconds, 58° C. for 7 seconds, and 72° C. for 14 seconds. Each sample was analyzed in duplicate and the experiment was repeated three times. Results were analyzed using RealQuant data analysis software (Roche, Neuilly-sur-seine, France). The results analysis was done with the 2(-Delta Delta C(T)) Method (Livak K J. et al., 2001; Methods. 25:402-8).
In order to find a sequence ASO having an inhibiting effect on TCTP expression, 30 ASO sequences have been designed 26 of which are shown in table 1. Said 30 sequences cover the TCTP mRNA (accession number NM_003295). Using BLAST program, the specificity of said sequences has been studied. Among said 30 sequences, only 15 sequences have been identified as being specific for TCPT mRNA sequence (see table 1). The effect of said ASO sequences on TCTP expression was tested by western blot analysis (WB) and/or by quantitative reverse transcription polymerase chain reaction (qRT-PCR) on PC-3 cells overexpressing TCTP. WB and qRT-PCR were performed as exposed in example 1.

Compound	ability to inhibit TCTP expression (TCTP)	also measured
5′-CGTGTAGGTACGGCAGATC-3′ (listed as DNA, chemistry not given here) [ASO scrambled, reference compound]		tumor volume (PC-3 tumors): over 1500 mm^3
CC(=O)O[C@@]12CO[C@@H]1C[C@H](O)[C@@]1(C)C(=O)[C@H](O)C3=C(C)[C@@H](OC(=O)[C@H](O)[C@@H](NC(=O)OC(C)(C)C)c4ccccc4)C[C@@](O)([C@@H](OC(=O)c4ccccc4)[C@H]21)C3(C)C [docetaxel, reference compound]		fraction of cells in S phase (PC-3 cells): without changing the fraction of cells in S phase; fraction of cells undergoing apoptosis (PC-3 cells): increased the fraction of cells undergoing apoptosis
ACCAGTGATTACTGTGCTTT (listed as DNA, chemistry not fully specified) [ASO13]	strong ability to inhibit TCTP expression	
AGAAAATCATATATGGGGTC (listed as DNA, chemistry not fully specified) [ASO24]	strong ability to inhibit TCTP expression	
ATGTAATCTTTGATGTACTT (listed as DNA, chemistry not fully specified) [ASO17]	strong ability to inhibit TCTP expression	
CTTGTAGGCTTCTTTTGTGA (listed as DNA, chemistry not fully specified) [ASO16]	strong ability to inhibit TCTP expression	
GAAATTAGCAAGGATGTGCT (listed as DNA, chemistry not fully specified) [ASO30]	strong ability to inhibit TCTP expression	
GTCATAAAAGGTTTTACTCT (listed as DNA, chemistry not fully specified) [ASO28]	strong ability to inhibit TCTP expression	
GTTTCCCTTTGATTGATTTC (listed as DNA, chemistry not fully specified) [ASO18]	strong ability to inhibit TCTP expression	
TAATCATGATGGCGACTGAA (listed as DNA, chemistry not fully specified) [ASO4]	strong ability to inhibit TCTP expression	
TTAACATTTCTCCATTTCTA (listed as DNA, chemistry not fully specified) [ASO26]	strong ability to inhibit TCTP expression	
TTCTGGTCTCTGTTCTTCAA (listed as DNA, chemistry not fully specified) [ASO19]	strong ability to inhibit TCTP expression	
